Results on two molecules are retold here after US20260206796A1, “FEED COMPOSITIONS” (Solugen, Inc., priority 2023, published 2026).

Common to all, as to format: in vivo
The subject of data set [1] is tilapia. Kind of data set: Liver and intestinal histopathology of tilapia after 2 months on the diets. To be noted: for Intestinal histopathology / Liver histopathology / hepatic toxicity: additive 0.5 wt. % in diet, hematoxylin and eosin staining. How it is done: (§1) After 2 months, all the fish were weighed to assess weight gain. Two fish/tank were sampled for liver and intestinal histopathology and the muscle sent out for biochemical analysis. The remaining fish were placed in new clean water and the water was sampled at 4 hours and measured for phosphorus levels mostly derived from urine.

The test system of data set [2] is tilapia. Nature of the data set: 2 month tilapia growth trial on soybean meal-based diets (growth, feed conversion, phosphorus discharge). To be noted: additive 0.5 wt. % in diet; for Fecal phosphorus content compared to control diet: feces after 2 months on diets; for Phosphorus discharge (via urine) in the water compared to soybean based control diet: new clean water sampled after 4 hours.
From the text: The efficacy of an FIA used as fish feed was investigated. The aim of this study was to assess the efficacy of (i) a feed comprising an FIA of the type disclosed herein (e.g., gluconate) on the growth, phosphorus discharge, biochemical composition and histopathology in tilapia when compared to (ii) a soybean meal-based diet that would have a similar formulation as commercial feeds or (iii) a soybean meal-based diet that includes an FIA of the type disclosed herein or sodium citrate, respectively. Sodium citrate was chosen because this is a competitive chelator and has in the past shown to improve phosphorus utilization/reduce phosphorus discharge in various aquatic animals.
To compare the efficacy of an FIA of the type disclosed herein, a total of 4 isonitrogenous and isolipidic diets were formulated to satisfy the nutritional requirements of tilapia. The crude protein and crude lipid content of the diets were all 32 wt. % and 8 wt. %, respectively. However, the percentages of proteins and supplements were altered to satisfy the aims of this study. Soybean meal was used across all diets. Diet 1 was the control with only soybean meal (cellulose at 0.5 wt. %).
The FIA appeared like packaging peanuts, and thus needed to be ground into a fine powder for the product to be adequately mixed in the diet. All diets were made using a pelleter and the pellets were dried in an oven at 60° C. and stored at −20° C. until use.
A total of 90 all male tilapia were equally distributed among 9 oval polyethylene tanks that ran on a recirculating system. Thus, all the fish shared the same water throughout the 2 month growth trial. After the fish were stocked, of approximately equal size, the tanks were randomly allocated their treatments in triplicate. For the first week, the tilapia were fed the control diet to acclimate them to the experimental conditions and then after a week were hand fed twice daily to apparent satiation on their respective experimental diets.
Throughout the study, excess waste was manually siphoned out of the system and water exchanges were provided weekly. Feed intake was recorded to later calculate the feed conversion ratio. Fish feces were collected, dried and measured for the phosphorus levels after 2 months.
as §1

Another data set has as its system freshwater shrimp. Nature of the data set: 10 week shrimp feeding trial with feed additives (phosphate level in tank water, survival). To be noted: for Shrimp survival rate: over 10 weeks of feeding trial, 1.2% additive in diet. From the text: To validate if gluconates can be used as an acidulant additives in fish feed to increase shrimp's digestion and reduce phosphate discharge to aquaculture farm water, freshwater shrimp were fed with 1) regular shrimp diet as a control, 2) the same shrimp diet with 1.2% of an FIA, particularly gluconate, as disclosed herein and 3) the shrimp diet with 1.2% sodium citrate as an additive.
Phosphate reduction was equivalently high level to slightly better than citric acid up to 12.5 wt. %. This functionality of reducing phosphate level in discharged water from aquaculture farms is beneficial with respect to environmental regulations as aquaculture farmers are dealing with and the restrictions on the allowed phosphate level in the discharged water waste from aquaculture farms.

Counter-ions that a name gives are not always drawn.

Turning to `O=C(O)[C@H](O)[C@@H](O)[C@H](O)[C@H](O)CO` [gluconate], the “Overall safety for consumption at the level tested” value in the data set on tilapia [1] (0.5 wt. % in diet) is “safe for tilapia consumption”. Further, the Intestinal histopathology entry in the data set on tilapia [1] was “no such adverse effects”. Further, the “Liver histopathology / hepatic toxicity” value in the data set with tilapia [1] (listed as FIA) is “no hepatic toxicity”; in the data set on tilapia [1] (listed as sugar oxidation product), “normal sinusoid organization with clear central veins and intact and well dispersed pancreatic islets”. Further, in the data set with tilapia [2], the “Fecal phosphorus content compared to control diet” value was “significantly less”. Further, the “Phosphorus discharge (via urine) in the water compared to soybean based control diet” value in the data set on tilapia [2] is given as “significantly less”. The “Phosphate reduction compared to citric acid” value in the data set on freshwater shrimp (1.2% additive in shrimp diet, vs citric acid additive diet) is recorded as “up to 12.5 wt. %”. In addition, in the data set with freshwater shrimp (1.2% additive in shrimp diet, vs control diet), the “Phosphate reduction in tank water compared to control (regular shrimp diet)” value is listed as “up to 19 wt. %”. In addition, the Shrimp survival rate with freshwater shrimp is 75%.

In the case of `O=C(O)CC(O)(CC(=O)O)C(=O)O` [sodium citrate, reference compound], the Intestinal histopathology result is “inflammation of the intestinal villi and goblet cell hyperplasia” in the data set on tilapia [1]; “severe inflammation in goblet cell (gc) and the lamina propria (lp)” in the data set with tilapia [1] (listed as citrate). The “Liver histopathology / hepatic toxicity” value was “varying degrees of hepatic lesions” in the data set with tilapia [1]; “hepatic toxicity based on both mild effects (localized inflammation) to severe (extensive necrosis, vacuolization and hemorrhaging)” in the data set with tilapia [1] (listed as Sodium citrate). In addition, the “Fecal phosphorus content compared to control diet” value in the data set on tilapia [2] is reported as “significantly less”. For the same molecule, in the data set on tilapia [2], the “Phosphorus discharge (via urine) in the water compared to soybean based control diet” value is given as “significantly less”. The Shrimp survival rate in the data set on freshwater shrimp is reported as 58%.
